pIC50: −log10 of the molar value.
Experiments:
Test in all cases: Inhibition of guinea pig heart Phosphodiesterase 3
PDE3 (Cavia porcellus) [1] = molecular target: PDE3 (Cavia porcellus)
PDE3 (Cavia porcellus) [2] = molecular target: PDE3 (Cavia porcellus); remark: listed apart in the source
PDE3 (Cavia porcellus) [3] = molecular target: PDE3 (Cavia porcellus); remark: listed apart in the source

Structure (SMILES): COc1ccc(C(=O)N2CCCc3cc(C4=NNC(=O)S[C@@H]4C)ccc32)cc1OC
- pIC50 (PDE3 (Cavia porcellus) [1]): 7.22
- pIC50 (PDE3 (Cavia porcellus) [2]): 7.30
- pIC50 (PDE3 (Cavia porcellus) [3]): 7.22
